Results: US9969771B2, “Tetrapeptide having effect of inhibiting VEGF-induced angiogenesis and use thereof” (AVIXGEN INC., priority 2015, dated 2018)
Entries after “also recorded” stand apart in the source; their conditions may differ. Where a SMILES comes first, the peptide text is derived from it.

Experiments:
Src = experiment: Western blot, Src phosphorylation in VEGF-A-stimulated HUVECs; assay type: cell-based, human; settings: HUVECs stimulated with VEGF-A
Procedure: (§1) Cells were lyzed in RIPA buffer, and 50 μg of proteins were isolated by SDS-PAGE and then transferred to a PVDF membrane. The membrane was reacted with an antibody with respect to a target protein for 2 hours. The membrane was washed twice and reacted with a horseradish peroxidase-conjugated antibody, and then an amount of the target proteins was assessed with an enhanced chemiluminescence system.

[1] = system: B16F10 mouse melanoma cells; experiment: Tumor metastasis experiment model (B16F10); assay type: in vivo, C57BL/6J mouse; settings: B16F10, 1 mg/kg per day peritoneally, three weeks, versus untreated control mouse
Procedure: 1×10^5 B16F10 mouse melanoma cells were injected into the caudal vein in the C57BL/6J mouse, and 1 mg/kg (100 μl) of RLYE (SEQ ID NO: 2) was peritoneally injected daily for 3 weeks. The lung was extracted and washed with Dulbecco's PBS, fixed in a 4% paraformaldehyde solution overnight, and the number of tumor metastasis shown on the entire surface of the lung was counted under a stereoscopic microscope.

[2] = system: HCT116 human colorectal tumor cells; experiment: Human colorectal tumor (HCT116) xenograft model; assay type: in vivo, nude mouse
Procedure: (§2) 100 μl each of 2×10^6 B16F1 mouse melanoma cells and 1×10^7 HCT116 human colorectal tumor cells were subcutaneously injected into the left side of a C57BL/6J mouse and a nude mouse. After a tumor volume reached at least 50 to 70 mm3 (taking about 7 days), saline or RLYE (SEQ ID NO: 2) (0.5 or 1.0 mg/kg) was peritoneally injected daily into the mice. A tumor size was two-dimensionally measured with calipers. A tumor volume (mm3) was calculated by a formula of […]. Following homogenization of tumor tissue with PBS and centrifugation (at 12,000×g for 5 min), a hemoglobin-containing supernatant was extracted to be used in analysis with Drabkin's reagent (Sigma). A hemoglobin level was measured by a cyanmethemoglobin method, and the amount of hemoglobin per gram of the tumor was calculated.
Tumor tissue was fixed in 10% formalin, and inserted into paraffin. A slide was prepared from a tissue section, embedded in xylene to remove the paraffin, and rehydrated with 100%, 95%, 80% and 70% ethanol (EtOH) in s stepwise manner. Afterward, the slide was washed with deionized water multiple times at room temperature. To inhibit an intracellular peroxidase activity, the section was reacted in 0.3% hydrogen peroxide-containing methanol for 15 minutes, washed with PBS three times, reacted in 3% goat serum-containing PBS at room temperature for 2 hours, and reacted with a PECAM-1 antibody overnight at 4° C. The tissue section slide was washed with PBS three times, and reacted with a TRITC-conjugated secondary antibody for 1 hour. In addition, the tumor tissue section was also reacted with FITC-isolectin B4 ([…]; Vector Laboratories) for 1 hour. The tissue section was washed with PBS three times, and treated with a Permount solution to make a slide, followed by observation of tumor blood vessels under a fluorescence microscope.

[3] = system: B16F1 mouse melanoma cells; experiment: Mouse melanoma (B16F1) animal model; assay type: in vivo, C57BL/6J mouse; settings: 1 mg/kg per day peritoneally
Procedure: as §2

Akt = experiment: Western blot, Akt phosphorylation in VEGF-A-stimulated HUVECs; assay type: cell-based, human; settings: HUVECs stimulated with VEGF-A
Procedure: as §1

VEGFR-2 [4] = biological target: T1, VEGFR-2 (Homo sapiens, UniProt P35968); experiment: Surface plasmon resonance (SPR) assay; assay type: binding; settings: rhVEGFR-2 fixed on CM5 chip
Procedure: Binding dynamics and affinity of RLYE (SEQ ID NO: 2) to rhVEGFR-2 were evaluated with BIAcore AB (Sweden). A carboxymethylated dextran biosensor chip (CM5, BIAcore AB) was activated with 1-ethyl-3-(3-dimethylaminopropyl)carbodiimide and N-hydroxysuccinimide according to the manufacturer's manual. The rhVEGFR-2 (1 ng/μl, 10 mM Hepes, 150 mM NaCl, 3 mM EDTA, 0.005% Tween-20-containing HBS-EP buffer) was injected over the activated CM5 chip for fixation. Various concentrations of an RLYE (SEQ ID NO: 2) solution was injected over the rhVEGFR-2-fixed center chip with a flow rate of 25 μl/min, and binding and non-binding characteristics between RLYE (SEQ ID NO: 2) and the rhVEGFR-2 were analyzed. The peptide bonds were measured in arbitrary response units, and after the injection of each sample (120 sec), the HBS-EP buffer was passed over a sensor surface to monitor dissociation. The equilibrium dissociation constant (Kd) was derived to a fixing step-combined model.

VEGFR-2 [5] = biological target: T1, VEGFR-2; experiment: Western blot, VEGFR-2 phosphorylation in VEGF-A-treated HUVECs; assay type: cell-based; set-up: endogenous in cells; host or cells: HUVEC
Procedure: as §1

HUVECs = experiment: Confocal microscopy of FITC-RLYE binding to HUVECs; set-up: species or system human
Procedure: HUVECs were incubated on a cover glass coated with 2% gelatin, and then incubated with FITC-RLYE (SEQ ID NO: 2) (100 ng/ml) after being treated with VEGF-A (10 ng/ml) for 30 minutes or not treated. The cells were fixed in 3.7% formaldehyde for 30 minutes, treated with 0.2% TritonX-100-containing PBS, and reacted with a 3% goat serum and 0.05% Tween-20-containing PBS blocking solution. The cells were reacted with a PECAM-1 antibody at room temperature for 2 hours, washed with PBS, and reacted with a TRITC-conjugated secondary antibody at room temperature for 90 minutes. Samples were observed under a confocal microscope.

ERK = experiment: Western blot, ERK phosphorylation in HUVECs; assay type: cell-based, human
Procedure: as §1

NO synthase (eNOS) = experiment: Western blot, eNOS phosphorylation in VEGF-A-stimulated HUVECs; assay type: cell-based, human
Procedure: as §1

zebrafish = experiment: Zebrafish angiogenesis assay; assay type: in vivo; settings: zebrafish embryo
Procedure: An adult zebrafish and an embryo were grown and maintained in a standard laboratory environment, and a zebrafish experiment was conducted according to the protocols approved by the animal ethics committee of Chungnam National University. To analyze angiogenesis, at 48 hours post fertilization (hpf), the embryo was anesthetized with tricaine (MS-222, 0.02%, embryo buffer), a peptide was administered, and FITC-dextran (2,000 kDa, Sigma) was further injected. A blood vessel image was obtained with a Leica DM5000B system at 72 hpf. As a probe for whole mount in situ hybridization, digoxigenin (DIG)-labeled RNA prepared by a cad5 (NM_001003983) gene was used. Meanwhile, a peptide was injected into the 18-hpf embryo collected at 25 hpf, fixed with 4% paraformaldehyde, washed with PBS (in 0.1% Tween20), and hybridized with DIG-labeled riboprobes (hybridization buffer). Subsequently, the resulting product was reacted with an alkaline phosphatase (AP)-conjugated anti-DIG antibody. Following reaction with an AP staining solution, a staining status was observed and visualized under a microscope (Leica, MZ-16).

[6] = 0.5 or 1.0 mg/kg per day peritoneally

T1 sequence (P35968 20-1356): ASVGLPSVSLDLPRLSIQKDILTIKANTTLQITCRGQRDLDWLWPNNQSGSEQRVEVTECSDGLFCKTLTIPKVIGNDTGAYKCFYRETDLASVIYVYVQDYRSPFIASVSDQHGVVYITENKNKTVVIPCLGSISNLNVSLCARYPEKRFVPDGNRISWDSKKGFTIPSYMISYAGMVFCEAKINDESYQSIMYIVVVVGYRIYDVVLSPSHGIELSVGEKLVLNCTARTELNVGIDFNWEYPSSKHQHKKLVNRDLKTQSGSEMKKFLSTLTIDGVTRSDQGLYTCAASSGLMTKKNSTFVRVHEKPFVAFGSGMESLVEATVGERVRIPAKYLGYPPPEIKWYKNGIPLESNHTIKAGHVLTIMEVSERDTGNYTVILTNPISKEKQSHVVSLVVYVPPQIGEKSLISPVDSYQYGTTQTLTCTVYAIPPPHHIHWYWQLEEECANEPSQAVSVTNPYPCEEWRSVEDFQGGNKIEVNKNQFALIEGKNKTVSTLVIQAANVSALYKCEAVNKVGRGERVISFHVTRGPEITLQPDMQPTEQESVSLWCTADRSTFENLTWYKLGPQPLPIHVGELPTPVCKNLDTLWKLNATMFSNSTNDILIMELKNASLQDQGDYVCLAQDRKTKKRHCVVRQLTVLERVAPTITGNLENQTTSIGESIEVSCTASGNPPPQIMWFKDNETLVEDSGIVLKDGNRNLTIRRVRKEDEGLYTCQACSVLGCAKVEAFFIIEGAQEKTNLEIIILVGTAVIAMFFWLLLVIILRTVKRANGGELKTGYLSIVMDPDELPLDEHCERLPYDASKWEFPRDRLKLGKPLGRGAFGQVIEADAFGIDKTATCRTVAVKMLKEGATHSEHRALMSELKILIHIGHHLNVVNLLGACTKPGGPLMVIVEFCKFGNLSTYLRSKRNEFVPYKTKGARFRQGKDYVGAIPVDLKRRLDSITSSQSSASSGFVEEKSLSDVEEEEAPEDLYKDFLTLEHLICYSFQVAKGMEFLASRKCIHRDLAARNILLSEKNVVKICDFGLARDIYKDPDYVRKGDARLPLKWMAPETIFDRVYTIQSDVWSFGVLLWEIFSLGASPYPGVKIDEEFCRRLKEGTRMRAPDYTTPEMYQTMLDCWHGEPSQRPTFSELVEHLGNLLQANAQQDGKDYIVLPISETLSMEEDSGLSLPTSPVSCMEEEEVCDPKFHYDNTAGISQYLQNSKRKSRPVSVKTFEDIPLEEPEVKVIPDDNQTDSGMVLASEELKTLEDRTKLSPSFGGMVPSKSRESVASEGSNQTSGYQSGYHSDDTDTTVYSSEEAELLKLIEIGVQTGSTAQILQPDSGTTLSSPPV

binding to rhVEGFR-2 (SPR) (VEGFR-2 [4]): effectively binds
phosphorylation of VEGFR-2 (VEGFR-2 [5]): inhibits
binding to HUVEC surface (confocal microscope) (HUVECs; pretreatment of VEGF-A): effectively blocked
binding to HUVEC surface (confocal microscope) (HUVECs; without VEGF-A pretreatment): binds to a HUVEC surface
Compound: CC(C)C[C@H](NC(=O)[C@@H](N)CCCNC(=N)N)C(=O)N[C@@H](Cc1ccc(O)cc1)C(=O)N[C@@H](CCC(=O)O)C(=O)O [RLYE] (H-RLYE-OH; N-terminus and C-terminus assumed)
phosphorylation of Src (Src): inhibited
decrease in number of colonies of tumor cells spreading to the lung [1]: 62%
invasion of HUVECs into tumor tissue (isolectin B4 / PECAM-1 immunostaining) [2]: decreased depending on the amount of treated RLYE
tumor growth [2, 6]: concentration-dependently inhibited
tumor size [2, 6]: significantly reduced
decrease in hemoglobin content in tumor tissue ([2]; compared with a control): 41%
tumor growth [3]: significantly decreased
tumor size [3]: significantly decreased
tumor weight [3]: significantly decreased
phosphorylation of Akt (Akt): inhibited
P1GF-induced ERK phosphorylation (ERK; P1GF (ligand of VEGFR-1)): did not inhibit
inhibition of VEGF-induced ERK phosphorylation (ERK; VEGF / VEGF-A stimulated): inhibited; also recorded: more effectively inhibited; also recorded: highest inhibitory effect
VEGF-B-induced ERK phosphorylation (ERK; VEGF-B (ligand of VEGFR-1)): did not inhibit
VEGF-A-induced phosphorylation of eNOS (NO synthase (eNOS)): effectively blocked
formation of intersegmental vessels (ISV) (zebrafish): obviously inhibited
formation of subintestinal vessels (SIV) (zebrafish): considerably inhibited
